# Earlier results, collected in patent US20040132743A1 (DR. REDDY'S LABORATORIES LIMITED DR. REDDY'S LABORATORIES, …, priority 2002, published 2004).
# Key:
# [1] = amorphous form compared with crystalline form
# [2] = in vivo
# [3] = studies in patients
smiles,measurement,setting,value
"CO/N=C(\C(=O)N[C@@H]1C(=O)N2C(C(=O)OC(C)OC(C)=O)=C(COC(N)=O)CS[C@H]12)c1ccco1 (stereo partly drawn) [amorphous form of cefuroxime axetil, cefuroxime axetil]",bioavailability,[1],higher bioavailability than its crystalline form
O=C(O)COCCN1CCN([C@H](c2ccccc2)c2ccc(Cl)cc2)CC1 [Levocetirizine],side effects on the central nervous system,[2],free from side effects on the central nervous system
O=C(O)COCCN1CCN(C(c2ccccc2)c2ccc(Cl)cc2)CC1 (racemic) [cetirizine],symptomatic relief of seasonal allergies,[3],"safe and effective, symptomatic relief of seasonal allergies"
